From US10011571B2, “Preparation method for aromatic heterocyclic compound used as selective JAK3 and/or JAK1 kinase inhibitor and application of aromatic heterocyclic compound” (SHENZHEN CHIPSCREEN BIOSCIENCES, LTD., priority 2014, dated 2018) come the findings set out here.

The target of one assay is JAK1 (Homo sapiens (Human), UniProt P23458). The assay is described as follows: Z'-LYTE enzymatic activity detection, JAK1. In kind it is biochemical. The following applies: test compound 300 nM; for inhibition at 0.3 µM: read-out: JAK1 % inhibitory rate @300 nM. On the procedure:
(§1) The basic principle of in vitro enzymatic activity assay is based on the difference between the intensities of fluorescence signals generated at different wavelengths (445 nm and 520 nm) from the phosphorylated substrate and non-phosphorylated substrate, in which the specific fluorescence-labeled substrate is phosphorylated by the kinase. When different test compounds are added, the inhibition of kinase activity is represented as the different degrees of substrate phosphorylation, and thus as the different intensities of fluorescence signal, based on which the inhibitory activity of the compound on the kinase can be calculated. Basic detection principle is illustrated in FIG. 1.
(§2) In an enzymatic inhibitory activity detection, GST-labeled human recombinant JAK kinases, including JAK1/PV4774, JAK2/PV4210, JAK3/PV3855, TYK2/PV4790 and their corresponding specific substrates, including Tyr6 (Z′-LYTE® Kinase Assay Kit-Tyrosine 6 Peptide, JAK1/PV4122), Tyr4 (Z′-LYTE® Kinase Assay Kit-Tyrosine 4 Peptide, JAK2/PV3193), Tyr4 (Z′-LYTE® Kinase Assay Kit-Tyrosine 4 Peptide, JAK3/PV3193), Tyr3 (Z′-LYTE® Kinase Assay Kit-[…], TYK2/PV3192) are used. In all tests, development reagent A (PV3297) was used as the test agent. All materials mentioned above were purchased from Invitrogen.
(§3) (1) Preparation: kinase reaction buffer (working solution) is prepared according to the instruction; a concentration gradient of the test compound is prepared by dilution using the kinase reaction buffer (the highest compound concentration is 10 μM for JAK1, JAK2, and TYK2 detection, and 1 μM for JAK3 detection, respectively).
(§4) (2) 10 μl of reaction system, comprising 2.5 μL test compound, 5 μL kinase reaction buffer and 2.5 μL ATP solution (provided by the kit), is mixed and reaction is performed at room temperature for 1 h.
(§5) (3) Controls, including a solvent control without the test compound, a negative control without ATP and a positive control with the phosphorylated substrate, are tested together with the detection. All tests are carried out in triplicate.
(§6) (4) After the enzymatic reaction, 5 μL pre-formulated development buffer is added, and reaction is performed at room temperature for 1 h. Subsequently, the reaction is terminated by adding 5 μL stop buffer.
(§7) (5) The fluorescence signal in each well is detected by an Ascent Fluoroskan FL reader (Thermo Labsystems) at an excitation wavelength of 400 nm, and emission wavelengths of 445 nm and 520 nm. The proportion of substrate phosphorylation is obtained by reference to the fluorescence signal intensity C445/F520.
(§8) (6) The enzymatic inhibitory rate of the test compound can be calculated based on the following equation: Inhibitory rate (%)=1−the proportion of substrate phosphorylation in the detection well/the proportion of substrate phosphorylation in the solvent control well. The half-inhibitory concentration (IC50) can be calculated using an IC50 calculator based on the inhibitory rates of phosphorylation for the test compounds at different concentration gradients.
(§9) Based on the above method, the compounds described herein are enzymatically evaluated in vitro for JAKs (the concentration of the test compound is 30 nM for JAK3 and JAK2 test, and 300 nM for JAK1 test) using Xeljanz (tofacitinib citrate) as the positive control.

Another assay has as its system HeLa cells. The assay is described as follows: Cell growth activity assay (MTS), HeLa cell model. The class given is cell-based, human. Set-up: activity: dose or concentration left out as unconfirmed. The following applies: Homo sapiens, HeLa, 72 h, read-out: HeLa % growth rate. The source says: (§10) MTS assay is a routine method for cell toxicity detection. The basic principle is based on the capacity of dehydrogenase in the mitochondria of living cells to reduce a novel yellow […] MTS to formazan, so that the amount of living cells is proportional to the amount of formazan product by detecting the absorbance at 490 nm (OD), thereby speculating the amount of living cells according to the OD value, and understanding the capacity of the test compound to inhibit the growth of cells or to kill the cells.
HeLa cell is a human cervical cancer cell line, and belongs to epithelial tumor cell line; HUVEC is a human umbilical vein endothelial cell, and belongs to primary endothelial cell; both types of cells express all subtypes except for JAK3.
The change of JAK kinase activity has no significant influence on other cell types except for the immune cells, and both cell models mentioned above are mainly used to evaluate whether there are any other kinase targets besides JAK kinases or there are nonselective cell toxicities.
In this experiment, a cultured cell model is incubated with the test compounds at different concentrations for a specific duration. The effect of the treatment by the test compound on the growth of cells is detected using MTS assay.
(§11) MTS is performed according to routine procedure in a 96-well plate.
The model cells are inoculated into each well of the 96-well plate at an appropriate concentration (about 5000 cells/well). After 24 h, the test compounds are added at different concentration gradients (the highest final concentration is 40 μM). A solvent control (DMSO) and a negative control are also performed at the same time. Each experiment is repeated for 3 times. The cells are detected after cultured for another 72 h.
After all culture medium is aspirated out of the well, 100 μL fresh medium and 20 μL pre-formulated mixture of MTS and PMS (in a ratio of 20:1) are added to each well. After incubation at 37° C. for 2 h, it is then detected by a microplate reader (490 nm).
The cell growth inhibitory rate and GI50 of the test compound are calculated as above.
Based on the above method, cytological evaluation is performed to the compounds described herein (for the detection of CTLL-2 cell, the concentration of the test compound is 300 nM; […]).

The next assay deals with JAK2 (Homo sapiens (Human), UniProt O60674). The assay is described as follows: Z'-LYTE enzymatic activity detection, JAK2. The class given is biochemical. The conditions noted are these: test compound 30 nM; read-out: JAK2 % inhibitory rate @30 nM. As for the experimental part: as §1, §2, §3, §4, §5, §6, §7, §8, §9
For the next assay, the system named is CTLL-2 cells. As to the kind of experiment: Cell growth activity assay (MTS), CTLL-2 cell model. The class given is cell-based, mouse. The following applies: Mus musculus, CTLL-2, 300 nM, 24 h, read-out: CTLL-2 % growth rate @300 nM.
Excerpt: as §10
In this experiment, mouse T-cell line CTLL-2 was used. The proliferation and growth of this cell line strongly depend on IL-2, and it is commonly used to evaluate the active titer of exogenous IL-2. By inhibiting the activity of kinase JAK1/3, the proliferation of CTLL-2 can be inhibited under in vitro culture. The activation and proliferation of T-cell is also important pathological characteristics for various immunological diseases. Thus, this model is also pathologically related.
By comparing the change of absorbance generated by the cells treated by the test compounds using MTS assay, the growth inhibitory activity of the test compounds on the model cells can be realized, and thereby potential inhibitory activity of the compounds on JAK1/3 pathway can be evaluated.
as §11
The model cells are inoculated into each well of the 96-well plate at an appropriate concentration (about 20,000 cells/well). After 24 h, the test compounds are added at different concentration gradients (the highest concentration of 10 μM). A solvent control (DMSO) and a negative control are also performed at the same time. Each experiment is repeated for 3 times. The cells are detected after cultured for another 24 h.
CTLL-2 is a suspended cell. After incubation, 20 μL pre-formulated mixture of MTS and PMS (in a ratio of 20:1) is directly added to each well. After incubation at 37° C. for 2 h, it is then detected by a microplate reader (490 nm).
The effect of the test compound on cell growth is calculated by comparing the change of OD values between the test well and the solvent control well, after subtracting the background of the negative control. For the test compounds at different concentration gradients, the inhibitory rates on the growth of model cells and their half-growth inhibitory concentrations (GI50) are each calculated.
Based on the above method, cytological evaluation is performed to the compounds described herein (for the detection of CTLL-2 cell, the concentration of the test compound is 300 nM; for the detection of HeLa and HUVEC cell, the concentration of the test compound is […]).

Another assay concerns the target JAK3 (Homo sapiens (Human), UniProt P52333). The assay is described as follows: Z'-LYTE enzymatic activity detection, JAK3. The conditions noted are these: test compound 30 nM; for inhibition at 0.03 µM: read-out: JAK3 % inhibitory rate @30 nM. The class given is biochemical. On the procedure:
as §1, §2, §3, §4, §5, §6, §7, §8, §9

JAK2, sequence (O60674 whole entry): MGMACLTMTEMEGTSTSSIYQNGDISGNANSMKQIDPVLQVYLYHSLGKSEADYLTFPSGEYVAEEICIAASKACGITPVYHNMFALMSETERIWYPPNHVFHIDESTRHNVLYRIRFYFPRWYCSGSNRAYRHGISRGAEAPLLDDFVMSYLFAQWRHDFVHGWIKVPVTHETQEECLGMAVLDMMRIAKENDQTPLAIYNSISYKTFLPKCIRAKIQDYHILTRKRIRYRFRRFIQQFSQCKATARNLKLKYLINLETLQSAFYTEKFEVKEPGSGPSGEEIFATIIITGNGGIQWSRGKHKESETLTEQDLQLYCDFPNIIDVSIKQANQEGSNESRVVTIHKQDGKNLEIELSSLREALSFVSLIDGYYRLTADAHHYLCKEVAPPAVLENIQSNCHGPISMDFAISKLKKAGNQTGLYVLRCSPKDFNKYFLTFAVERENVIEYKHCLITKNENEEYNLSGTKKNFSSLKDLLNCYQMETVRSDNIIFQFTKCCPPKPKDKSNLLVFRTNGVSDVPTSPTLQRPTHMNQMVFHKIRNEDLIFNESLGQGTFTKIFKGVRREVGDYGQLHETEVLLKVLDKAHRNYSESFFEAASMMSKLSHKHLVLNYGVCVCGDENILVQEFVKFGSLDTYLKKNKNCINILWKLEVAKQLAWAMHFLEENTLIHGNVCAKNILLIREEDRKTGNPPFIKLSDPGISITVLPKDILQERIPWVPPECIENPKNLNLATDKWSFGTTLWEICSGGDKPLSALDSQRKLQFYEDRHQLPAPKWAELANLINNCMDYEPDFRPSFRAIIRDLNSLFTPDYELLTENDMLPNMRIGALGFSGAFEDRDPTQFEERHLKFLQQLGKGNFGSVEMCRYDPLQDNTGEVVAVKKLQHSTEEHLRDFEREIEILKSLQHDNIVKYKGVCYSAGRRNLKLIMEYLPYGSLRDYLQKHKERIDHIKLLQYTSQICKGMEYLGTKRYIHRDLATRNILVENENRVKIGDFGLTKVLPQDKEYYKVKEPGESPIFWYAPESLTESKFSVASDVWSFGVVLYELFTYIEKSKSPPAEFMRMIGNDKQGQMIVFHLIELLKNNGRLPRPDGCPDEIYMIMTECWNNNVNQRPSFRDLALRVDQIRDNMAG
JAK3, sequence (P52333 whole entry): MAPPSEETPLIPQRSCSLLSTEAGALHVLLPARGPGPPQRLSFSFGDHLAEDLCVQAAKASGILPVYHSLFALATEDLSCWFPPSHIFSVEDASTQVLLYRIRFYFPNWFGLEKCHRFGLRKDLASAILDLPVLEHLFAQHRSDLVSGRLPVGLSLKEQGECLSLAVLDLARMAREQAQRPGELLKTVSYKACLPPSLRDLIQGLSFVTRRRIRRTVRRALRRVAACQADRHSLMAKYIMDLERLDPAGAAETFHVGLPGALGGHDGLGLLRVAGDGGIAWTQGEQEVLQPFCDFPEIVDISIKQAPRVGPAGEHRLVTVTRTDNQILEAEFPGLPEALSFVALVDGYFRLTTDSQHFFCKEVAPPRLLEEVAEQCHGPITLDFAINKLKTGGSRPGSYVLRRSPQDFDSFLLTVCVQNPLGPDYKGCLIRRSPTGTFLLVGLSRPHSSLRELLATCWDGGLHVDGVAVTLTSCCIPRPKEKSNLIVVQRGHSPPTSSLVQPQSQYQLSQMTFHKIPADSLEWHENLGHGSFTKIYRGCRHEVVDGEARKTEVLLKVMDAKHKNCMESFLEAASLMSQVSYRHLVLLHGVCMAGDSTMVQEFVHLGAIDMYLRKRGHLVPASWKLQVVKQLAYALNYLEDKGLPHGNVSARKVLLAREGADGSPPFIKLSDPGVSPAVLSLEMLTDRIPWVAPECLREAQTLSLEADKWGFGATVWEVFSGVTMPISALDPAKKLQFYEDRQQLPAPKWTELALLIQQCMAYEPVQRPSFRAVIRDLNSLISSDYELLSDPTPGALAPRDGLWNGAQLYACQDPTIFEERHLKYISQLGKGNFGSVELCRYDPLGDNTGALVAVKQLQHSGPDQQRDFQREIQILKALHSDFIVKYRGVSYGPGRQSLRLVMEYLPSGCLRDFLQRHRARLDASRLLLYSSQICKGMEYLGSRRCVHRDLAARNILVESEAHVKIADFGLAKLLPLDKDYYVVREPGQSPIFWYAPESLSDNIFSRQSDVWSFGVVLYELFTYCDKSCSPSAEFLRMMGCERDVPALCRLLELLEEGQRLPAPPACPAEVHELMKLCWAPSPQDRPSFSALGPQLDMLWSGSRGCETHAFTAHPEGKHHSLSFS
JAK1, sequence (P23458 whole entry): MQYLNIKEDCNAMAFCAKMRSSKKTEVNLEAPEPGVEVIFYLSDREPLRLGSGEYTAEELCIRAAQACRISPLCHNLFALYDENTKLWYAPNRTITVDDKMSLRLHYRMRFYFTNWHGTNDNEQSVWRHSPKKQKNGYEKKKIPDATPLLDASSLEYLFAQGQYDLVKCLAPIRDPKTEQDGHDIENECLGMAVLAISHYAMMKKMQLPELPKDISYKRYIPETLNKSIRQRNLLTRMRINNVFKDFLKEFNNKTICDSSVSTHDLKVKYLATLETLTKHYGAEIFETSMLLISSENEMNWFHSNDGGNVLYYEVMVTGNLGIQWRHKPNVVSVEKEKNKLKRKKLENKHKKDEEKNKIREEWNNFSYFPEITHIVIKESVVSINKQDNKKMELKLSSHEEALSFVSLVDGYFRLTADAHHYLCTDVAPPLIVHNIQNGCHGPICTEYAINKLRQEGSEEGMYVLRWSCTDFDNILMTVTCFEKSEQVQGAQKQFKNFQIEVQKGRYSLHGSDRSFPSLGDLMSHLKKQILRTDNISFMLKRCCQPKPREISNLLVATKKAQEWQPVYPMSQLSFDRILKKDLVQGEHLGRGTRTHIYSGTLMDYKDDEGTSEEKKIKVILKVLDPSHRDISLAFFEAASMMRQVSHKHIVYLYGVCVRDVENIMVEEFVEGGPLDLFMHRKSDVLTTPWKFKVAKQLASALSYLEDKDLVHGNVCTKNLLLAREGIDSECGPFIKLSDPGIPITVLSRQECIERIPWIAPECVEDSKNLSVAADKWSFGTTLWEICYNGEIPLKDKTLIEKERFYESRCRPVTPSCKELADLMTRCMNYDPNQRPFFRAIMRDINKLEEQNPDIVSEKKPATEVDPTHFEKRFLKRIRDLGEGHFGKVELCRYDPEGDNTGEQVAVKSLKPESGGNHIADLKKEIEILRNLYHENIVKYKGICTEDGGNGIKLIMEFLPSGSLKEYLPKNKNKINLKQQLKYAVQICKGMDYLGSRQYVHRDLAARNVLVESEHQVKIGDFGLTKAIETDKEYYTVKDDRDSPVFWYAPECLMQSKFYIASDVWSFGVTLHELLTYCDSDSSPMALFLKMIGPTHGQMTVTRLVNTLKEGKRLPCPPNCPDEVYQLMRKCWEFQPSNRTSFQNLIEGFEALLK

`C=CC(=O)Nc1cc(Nc2ncc(Cl)c(NCCCNC(=O)c3ccc(C(F)(F)F)cc3)n2)ccc1F` [Example 13, N-(3-(2-(3-acrylamido-4-fluoro-phenylamino)-5-chloropyrimidinyl-4-amino)propyl)-4-trifluoromethylbenzamide]: at JAK1, the “JAK1 RV (ratio between the inhibitory rate of the test compound and that of Xeljanz)” value came out at 0.40; the inhibition at 0.3 µM came to 35%. In the assay on HeLa cells, the activity was determined as 1%. The inhibition at 0.03 µM on JAK2 is 0%. The activity at 0.3 µM with CTLL-2 cells was determined as 63%. Also, on JAK3, the “JAK3 RV (ratio between the inhibitory rate of the test compound and that of Xeljanz)” value is listed as 0.96; the inhibition at 0.03 µM stood at 79%.

Take `C=CC(=O)N(C)c1cc(Nc2ncc(Cl)c(NCCCNC(=O)c3c(F)cc(F)cc3F)n2)ccc1F` [Example 36, N-(3-(5-chloro-2-(4-fluoro-3-(N-methylacrylamido)phenylamino)pyrimidinyl-4-amino)propyl)-2,4,6-trifluorobenzamide]: on JAK1, the “JAK1 RV (ratio between the inhibitory rate of the test compound and that of Xeljanz)” value is listed as 0.25; the inhibition at 0.3 µM amounted to 42%. For the same compound, the activity in the assay with HeLa cells was found to be 38%. Further, the inhibition at 0.03 µM at JAK2 stood at 0%. Also, the activity at 0.3 µM with CTLL-2 cells is 32%. Moreover, at JAK3, the “JAK3 RV (ratio between the inhibitory rate of the test compound and that of Xeljanz)” value is 0.53; the inhibition at 0.03 µM was determined as 104%.

Regarding `C=CC(=O)N(C)c1cc(Nc2ncc(Cl)c(NCCCNC(=O)c3ccc(OC)cc3)n2)ccc1F` [Example 40, N-(3-(5-chloro-2-(4-fluoro-3-(N-methylacrylamido)phenylamino)pyrimidinyl-4-amino)propyl)-4-methoxylbenzamide], at JAK1, the “JAK1 RV (ratio between the inhibitory rate of the test compound and that of Xeljanz)” value was 0.02; the inhibition at 0.3 µM amounted to 4%. In addition, the activity in the assay on HeLa cells is 82%. Besides, at JAK2, the inhibition at 0.03 µM was 0%. The activity at 0.3 µM in the assay on CTLL-2 cells is 39%. Besides, at JAK3, the “JAK3 RV (ratio between the inhibitory rate of the test compound and that of Xeljanz)” value is 0.46; the inhibition at 0.03 µM came out at 89%.

In the case of `C=CC(=O)N(C)c1cc(Nc2ncc(Cl)c(NCCCNC(=O)c3ccc(C#N)nc3)n2)ccc1F` [Example 44, N-(3-(5-chloro-2-(4-fluoro-3-(N-methylacrylamido)phenylamino)pyrimidinyl-4-amino)propyl)-6-cyanonicotinamide], at JAK1, the “JAK1 RV (ratio between the inhibitory rate of the test compound and that of Xeljanz)” value stood at 0.34; the inhibition at 0.3 µM was 58%. For the same compound, the activity in the assay with HeLa cells is 39%. Moreover, the inhibition at 0.03 µM at JAK2 came out at 0%. Also, the activity at 0.3 µM in the assay with CTLL-2 cells stood at 29%. For the same compound, on JAK3, the “JAK3 RV (ratio between the inhibitory rate of the test compound and that of Xeljanz)” value is reported as 0.58; the inhibition at 0.03 µM stood at 113%.

Regarding `C=CC(=O)N(C)c1cc(Nc2ncc(Cl)c(NCCCNC(=O)c3ccc(O)cc3)n2)ccc1F` [Example 48, N-(3-(5-chloro-2-(4-fluoro-3-(N-methylacrylamido)phenylamino)pyrimidinyl-4-amino)propyl)-4-hydroxybenzamide], the inhibition at 0.3 µM on JAK1 was found to be 0%. In addition, the activity in the assay on HeLa cells came to 90%. In addition, at JAK2, the inhibition at 0.03 µM stood at 0%. For the same compound, the activity at 0.3 µM with CTLL-2 cells came to 50%. Further, on JAK3, the “JAK3 RV (ratio between the inhibitory rate of the test compound and that of Xeljanz)” value is reported as 0.56; the inhibition at 0.03 µM was 109%.

As for `C=CC(=O)N(C)c1cc(Nc2ncc(Cl)c(NCCCNC(=O)c3ccc(C#N)cc3F)n2)ccc1F` [Example 52, N-(3-(5-chloro-2-(4-fluoro-3-(N-methylacrylamido)phenylamino)pyrimidinyl-4-amino)propyl)-4-cyano-2-fluorobenzamide], at JAK1, the “JAK1 RV (ratio between the inhibitory rate of the test compound and that of Xeljanz)” value is 0.08; the inhibition at 0.3 µM came out at 14%. The activity with HeLa cells was determined as 64%. Besides, the inhibition at 0.03 µM at JAK2 came out at 0%. Further, in the assay with CTLL-2 cells, the activity at 0.3 µM was determined as 29%. Further, on JAK3, the “JAK3 RV (ratio between the inhibitory rate of the test compound and that of Xeljanz)” value stood at 0.54; the inhibition at 0.03 µM stood at 105%.

Turning to `C=CC(=O)N(C)c1cc(Nc2ncc(Cl)c(NCCCNC(=O)c3ccc(C#N)c(F)c3)n2)ccc1F` [Example 56, N-(3-(5-chloro-2-(4-fluoro-3-(N-methylacrylamido)phenylamino)pyrimidinyl-4-amino)propyl)-4-cyano-3-fluorobenzamide], at JAK1, the “JAK1 RV (ratio between the inhibitory rate of the test compound and that of Xeljanz)” value worked out at 0.05; the inhibition at 0.3 µM was found to be 9%. Moreover, the activity in the assay with HeLa cells was found to be 60%. At JAK2, the inhibition at 0.03 µM is 0%. Besides, the activity at 0.3 µM in the assay on CTLL-2 cells was 30%. Besides, at JAK3, the “JAK3 RV (ratio between the inhibitory rate of the test compound and that of Xeljanz)” value was 0.59; the inhibition at 0.03 µM amounted to 116%.
